Measured values published in patent US10131652B2, “Pyrimidinyloxy benzene derivatives as herbicides” (E. I. DU PONT DE NEMOURS AND COMPANY, priority 2014, dated 2018).
Where two headings read alike, the source gives them in different places.

Key:
Type in all cases: in vivo
[1] = tested on: Italian ryegrass (Lolium multiflorum); experiment: Test B pre-/postemergence plant response
Procedure, shortened: (§1)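 Steps: plant seeds in loam soil–sand mix; spray soil preemergence, and in parallel spray 2–10 cm one- to two-leaf plants postemergence; hold ~10 days in greenhouse; visually rate injury against untreated controls (0 = no effect, 100 = complete control).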

[2] = tested on: barnyardgrass (Echinochloa crus-galli); experiment: Test B pre-/postemergence plant response; details: for pest or weed control at 31 g/ha: 31 g ai/ha
Procedure, shortened: as §1

corn (Zea mays) = experiment: Test B pre-/postemergence plant response; details: Zea mays, post-emergence, 240 h
Procedure, shortened: as §1

[3] = tested on: giant foxtail (Setaria faberii); experiment: Test B pre-/postemergence plant response; details: for pest or weed control at 31 g/ha: 31 g ai/ha
Procedure, shortened: as §1

kochia (Kochia scoparia) [4] = experiment: Test B pre-/postemergence plant response
Procedure, shortened: as §1

[5] = tested on: pigweed (Amaranthus retroflexus); experiment: Test B pre-/postemergence plant response; details: for pest or weed control at 31 g/ha: 31 g ai/ha
Procedure, shortened: as §1

[6] = tested on: ragweed (common ragweed, Ambrosia elatior); experiment: Test B pre-/postemergence plant response
Procedure, shortened: as §1

[7] = tested on: wheat (Triticum aestivum); experiment: Test B pre-/postemergence plant response; details: Triticum aestivum, post-emergence, 240 h, read-out: Plant response rating, Wheat
Procedure, shortened: as §1

[8] = tested on: blackgrass (Alopecurus myosuroides); experiment: Test B postemergence plant response
Procedure, shortened: (§2)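 Visual injury rating, 0–100 (0 = no effect, 100 = complete control), vs untreated controls ~10 days after postemergence spray; greenhouse; potted loam soil/sand; plants 2–10 cm, 1–2 leaf stage.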

[9] = tested on: galium (catchweed bedstraw, Galium aparine); experiment: Test B postemergence plant response
Procedure, shortened: as §2

[10] = tested on: barnyardgrass (Echinochloa crus-galli); experiment: Test C flooded paddy test plant response; details: Echinochloa crus-galli; Flood, 250 g ai/ha; scale of 0 to 100 where 0 is no effect and 100 is complete control; 13 to 15 days; read-out: Barnyardgrass plant response rating
Procedure, shortened: (§3)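 Visual injury ratings (0, no effect; 100, complete control) were assigned after 13 to 15 days in a greenhouse, comparing treated plants with controls. Compounds had been added straight into paddy water over 2-leaf-stage plants flooded to 3 cm.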

[11] = tested on: ducksalad (Heteranthera limosa); experiment: Test C flooded paddy test plant response; details: Heteranthera limosa; Flood, 250 g ai/ha; scale of 0 to 100 where 0 is no effect and 100 is complete control; 13 to 15 days; read-out: Ducksalad plant response rating
Procedure, shortened: as §3

rice (Oryza sativa) = experiment: Test C flooded paddy test plant response; details: Oryza sativa; Flood, 250 g ai/ha; scale of 0 to 100 where 0 is no effect and 100 is complete control; 13 to 15 days; read-out: Rice plant response rating
Procedure, shortened: as §3

[12] = tested on: small-flower umbrella sedge (Cyperus difformis); experiment: Test C flooded paddy test plant response; details: Cyperus difformis; Flood, 250 g ai/ha; scale of 0 to 100 where 0 is no effect and 100 is complete control; 13 to 15 days; read-out: Sedge, Umbrella plant response rating
Procedure, shortened: as §3

[13] = tested on: chickweed (common chickweed, Stellaria media); experiment: Test D postemergence plant response; details: Stellaria media, post-emergence
Procedure, shortened: (§4)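 Visual 0–100 rating vs controls (0 = no effect, 100 = complete control), scored 13–15 d after postemergence spray. Plants 1- to 4-leaf stage (2–18 cm), potted in peat/vermiculite mix, kept in greenhouse.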

kochia (Kochia scoparia) [14] = experiment: Test D postemergence plant response; details: Bassia scoparia, post-emergence
Procedure, shortened: as §4

wild oat (Avena fatua) = experiment: Test D postemergence plant response; details: Avena fatua, post-emergence
Procedure, shortened: as §4

[15] = 31 g ai/ha, Preemergence, 0 to 100 scale where 0 is no effect and 100 is complete control
[16] = 125 g ai/ha, postemergence, 0 to 100 scale, 0 no effect, 100 complete control
[17] = Postemergence, 31 g ai/ha, 0 to 100 scale (0 no effect, 100 complete control)
[18] = Preemergence, 125 g ai/ha, 0 to 100 scale (0 no effect, 100 complete control)

In the case of `Fc1cccc(Oc2ncc(Cl)cn2)c1-c1cc(C(F)F)no1` [Compound 144, 5-chloro-2-[2-[3-(difluoromethyl)-5-isoxazolyl]-3-fluorophenoxy]pyrimidine], the “Plant response rating, Ryegrass, Italian” value [1, 15] is reported as 0, the “Plant response rating, Ryegrass, Italian” value [1, 16] is reported as 100 and the “Plant response rating, Ryegrass, Italian” value [1, 17] is reported as 20. For the same molecule, the “Ryegrass, Italian plant response rating” value [1, 18] was 90, the pest or weed control at 125 g/ha ([2]; Echinochloa crus-galli, post-emergence, 240 h, 125 g ai/ha, postemergence, 0 to 100 scale, 0 no effect, 100 complete control, read-out: Plant response rating, Barnyardgrass) was 100% and the pest or weed control at 31 g/ha ([2]; Echinochloa crus-galli, post-emergence, 240 h, Postemergence, 0 to 100 scale (0 no effect, 100 complete control), read-out: Plant response rating, Barnyardgrass) was 30%. For the same molecule, the pest or weed control at 31 g/ha ([2]; Echinochloa crus-galli, pre-emergence, 240 h, Preemergence, 0 to 100 scale where 0 is no effect and 100 is complete control, read-out: Plant response rating, Barnyardgrass) was 80%, the “Barnyardgrass plant response rating” value [2, 18] was 100 and the Corn plant response rating (crop injury, 0 = no effect, 100 = complete kill) at 125 g/ha (corn (Zea mays); [16]) was 90%. For the same molecule, the Corn plant response rating (crop injury, 0 = no effect, 100 = complete kill) at 31 g/ha (corn (Zea mays); [17]) was 30%, the “Foxtail, Giant plant response rating” value [3, 18] was 100 and the pest or weed control at 125 g/ha ([3]; Setaria faberi, post-emergence, 240 h, 125 g ai/ha, postemergence, 0 to 100 scale, 0 no effect, 100 complete control, read-out: Plant response rating, Foxtail, Giant) was 100%. The pest or weed control at 31 g/ha ([3]; Setaria faberi, post-emergence, 240 h, Postemergence, 0 to 100 scale (0 no effect, 100 complete control), read-out: Plant response rating, Foxtail, Giant) was 80%, the pest or weed control at 31 g/ha ([3]; Setaria faberi, pre-emergence, 240 h, Preemergence, 0 to 100 scale where 0 is no effect and 100 is complete control, read-out: Plant response rating, Foxtail, Giant) was 100% and the “Plant response rating, Kochia” value (kochia (Kochia scoparia) [4]; [15]) was 90. The “Plant response rating, Kochia” value (kochia (Kochia scoparia) [4]; [16]) was 100, the “Plant response rating, Kochia” value (kochia (Kochia scoparia) [4]; [17]) was 100 and the “Kochia plant response rating” value (kochia (Kochia scoparia) [4]; [18]) was 100. The pest or weed control at 125 g/ha ([5]; Amaranthus retroflexus, post-emergence, 240 h, 125 g ai/ha, postemergence, 0 to 100 scale, 0 no effect, 100 complete control, read-out: Plant response rating, Pigweed) was 100%, the pest or weed control at 31 g/ha ([5]; Amaranthus retroflexus, post-emergence, 240 h, Postemergence, 0 to 100 scale (0 no effect, 100 complete control), read-out: Plant response rating, Pigweed) was 100% and the pest or weed control at 31 g/ha ([5]; Amaranthus retroflexus, pre-emergence, 240 h, Preemergence, 0 to 100 scale where 0 is no effect and 100 is complete control, read-out: Plant response rating, Pigweed) was 100%. For the same molecule, the “Pigweed plant response rating” value [5, 18] was 100, the “Plant response rating, Ragweed” value [6, 15] was 0 and the “Plant response rating, Ragweed” value [6, 16] was 60. For the same molecule, the “Plant response rating, Ragweed” value [6, 17] was 20, the “Ragweed plant response rating” value [6, 18] was 50 and the plant injury at 125 g/ha [7, 16] was 90%. For the same molecule, the plant injury at 31 g/ha [7, 17] was 30%, the “Plant response rating, Blackgrass” value [8, 16] was 90 and the “Plant response rating, Blackgrass” value [8, 17] was 80. For the same molecule, the “Plant response rating, Galium” value [9, 16] was 100, the “Plant response rating, Galium” value [9, 17] was 100 and the pest or weed control at 250 g/ha [10] was 98%. For the same molecule, the pest or weed control at 250 g/ha [11] was 90%, the plant injury at 250 g/ha (rice (Oryza sativa)) was 40% and the pest or weed control at 250 g/ha [12] was 85%. The pest or weed control at 16 g/ha ([13]; 16 g ai/ha, scale 0 to 100 (0 no effect, 100 complete control), read-out: Chickweed plant response rating) was 70%, the pest or weed control at 31 g/ha ([13]; 31 g ai/ha, scale 0 to 100 (0 no effect, 100 complete control), read-out: Chickweed plant response rating) was 80% and the pest or weed control at 62 g/ha ([13]; 62 g ai/ha, scale 0 to 100, 0 no effect, 100 complete control, read-out: Plant response rating, Chickweed) was 95%. The pest or weed control at 125 g/ha ([13]; 125 g ai/ha, scale 0 to 100, 0 no effect, 100 complete control, read-out: Plant response rating, Chickweed) was 95%, the pest or weed control at 31 g/ha (kochia (Kochia scoparia) [14]; 31 g ai/ha, scale 0 to 100 (0 no effect, 100 complete control), read-out: Kochia plant response rating) was 100% and the pest or weed control at 62 g/ha (kochia (Kochia scoparia) [14]; 62 g ai/ha, scale 0 to 100, 0 no effect, 100 complete control, read-out: Plant response rating, Kochia) was 100%. The pest or weed control at 125 g/ha (kochia (Kochia scoparia) [14]; 125 g ai/ha, scale 0 to 100, 0 no effect, 100 complete control, read-out: Plant response rating, Kochia) was 100%, the pest or weed control at 31 g/ha (wild oat (Avena fatua); 31 g ai/ha, scale 0 to 100 (0 no effect, 100 complete control), read-out: Oat, Wild plant response rating) was 0% and the pest or weed control at 62 g/ha (wild oat (Avena fatua); 62 g ai/ha, scale 0 to 100, 0 no effect, 100 complete control, read-out: Plant response rating, Oat, Wild) was 5%. It also gave a pest or weed control at 125 g/ha (wild oat (Avena fatua); 125 g ai/ha, scale 0 to 100, 0 no effect, 100 complete control, read-out: Plant response rating, Oat, Wild) of 10%.
